Experimental data published in patent US10294226B2, “Small molecule inhibitors of the JAK family of kinases” (Janssen Pharmaceutica NV, priority 2016, dated 2019).
Converted amounts (≈) assume the structure as drawn.

How the values were obtained:
[1] = In vivo intracolonic (i.c.) dosing, plasma and colon concentrations (Protocol 3); design: species or system female C57BL/6 mice; key to Plasma Concentration After i.c. Dosing, Mean: ^: Mean was not calculated as the values for all three mice were below the lower limit of quantitation; settings: mice; for Plasma Concentration After i.c. Dosing, Mean: 5 mg/kg i.c.
Description: Plasma and colon concentration results were obtained by following Protocol 1 using venipuncture of dorsal metatarsal vein bleed for Compounds (B), (C), and Examples 6 and 11. Plasma and colon concentration results were obtained by following Protocol 2 using retro-orbital bleed for Compounds (A), and Examples 1, and 3-5 and Protocol 2 using venipuncture of the dorsal metatarsal vein for Examples 2, 7-10, and 12. Plasma and colon concentration results were obtained by following Protocol 3 for Examples 1, 3 and 4. These protocols are described below under the heading In vivo Studies.
Intracolonic (IC) dose group: Following anesthesia with isoflurane by inhalation, three non-fasted female C57BL/6 mice were administered the compound intracolonically through a small incision in the abdominal wall using a syringe and needle at a dose of 5 mg/kg as a solution in 20% HPβCD at a dose volume of 1 mL/kg. Blood samples were collected at 0.5, 2, and 4 h post dose via retro-orbital bleed. Blood samples were collected into tubes containing anticoagulant (Heparin-Na) and placed on wet ice. The plasma fraction was separated by centrifugation and frozen at −20° C. for up to 4 h and −80° C. after 4 h unless analyzed shortly after sample collection. Colon samples were collected at 4 h post dose. From 2 cm below the cecum, a 4-cm sample of the colon was dissected, cut open on the longitudinal axis, and the solid contents removed by flushing with 2 mL of saline. The colon was further washed by putting it in 5 mL of saline and shaken for 5 seconds. The colon sample was then patted dry, weighed, and homogenized as 1 part tissue (g) to 4 parts HPLC grade water (mL). Concentrations of the compound in plasma and colon homogenate were determined using a qualified liquid chromatography-triple quadrupole mass spectrometry (LC-MS/MS) method. This protocol was used to evaluate IC dosing of the following test compounds: Examples 1, 3, and 4.

JAK1-JH1JH2 = JAK1-JH1JH2 (Homo sapiens (Human), UniProt P23458); assay: Enzymatic inhibition assay (HTMS); assay type: biochemical; settings: 12.5 μM ATP; read-out: JAK1_JH1JH2 IC50
Description: (§1) JAK1-JH1JH2 (574-1154 with a His-GST Tag and a C-terminal tev (ENLYFQ-G) cleavage site), JAK3-JH1JH2 (512-1124 with a GST Tag and a C-terminal tev (ENLYFQ-G) cleavage site), and Tyk2-JH1JH2 (8H_tev_580-1182-C936A-C1142A with a C-terminal tev (ENLYFQ-G) cleavage site) were purified internally. […] LC/MS grade water and acetonitrile (ACN), were purchased from HoneyWell, Burdick & Jackson (Muskegon, Mich., USA). Dimethylsulfoxide 99.8% (DMSO) and trifluoroacetic acid 99.5% (TFA) were purchased from EMD Chemical (Gibbstown, N.J., USA). Adenosine triphosphate (ATP), 4-morpholinepropanesulfonic acid (MOPS), magnesium chloride (MgCl2), ethylenediaminetetraacetic acid (EDTA), dithiothreitol (DTT), formic acid>95% (FA) and Tween-20 were purchased from Sigma (St Louis, Mo., USA). 384-well polypropylene plates, Cat#781280 were purchased from Greiner (Monroe, N.C.), RapidFire™ cartridge A C4 Column (Agilent Technologies, Santa Clara, Calif.).
(§2) The HTMS experiments were performed in positive ionization mode on a RapidFire 300 instrument (Agilent Technologies, Santa Clara, Calif.), coupled with an ABSiex QTrap 4000 system with an Electrospray Ionization source (RF-MS) (Concord, ON, Canada). […] The entire system was operated using the RapidFire software interfaced with Analyst software for the mass spectrometer.
(§3) 11-point dosing series were made for each compound by serially diluting 1:3 or 1:4 in DMSO, with point 12 being a DMSO control. From the serial dilution plates, sample was transferred to a 384 wells assay plate (#781280, Greiner, Monroe, N.C.) using Labcyte Echo (Sunnyvale, Calif.), or Biosero ATS (San Diego, Calif.). The compounds were tested in duplicate. Column 12 was used for positive controls, and column 24 contained negative controls with no enzyme added. A compound from our internal collection, with inhibitory activity for JAK isoforms, was used as a reference compound. The final concentration of DMSO was ≤0.25% in a 20 μL reaction. The enzyme reaction was initiated by the addition of 10 μL of enzyme and ATP mixture to 10 μL of substrate solution prepared in reaction buffer (50 mM MOPS pH 7.5, 10 mM MgCl2, 1 mM EDTA, 2 mM DTT, 0.002% Tween-20). The Tyk2 enzyme was pre-incubated with 2 mM ATP for 30 min prior to the reaction initiation. Immediately after the addition of the enzyme to the reaction mixture, the plate was centrifuged at 1000 rpm for 1 minute and incubated at 25° C. for 45 minutes for JAK3 and 90 minutes for JAK1, JAK2 and Tyk2. The reaction was quenched by the addition of 20 μL of 0.5% TFA containing 0.15 μM of internal standard peptide using Multidrop Combi reagent dispenser (Thermo Scientific, Waltham, Mass.). […] After the quench, the assay plate was centrifuged at 3000 rpm for 3 minutes and sealed with pierceable aluminum foil (Cat#06644-001, Agilent) using a PlateLoc (Agilent Technologies, Santa Clara, Calif.). The plates then were transferred on to the RapidFire for the MS analysis. Compound inhibition was assessed by a decrease of the phosphorylated product levels in sample wells compared to the non-inhibited enzyme reaction.
(§4) The sample analysis on the RapidFire was performed using a mobile phase A1 consisting of Water/TFA/FA (100:0.01:0.1, v/v/v), a mobile phase B1 consisting of ACN/Water/TFA/FA (80:20:0.01:0.1, v/v/v). […] The samples were aspirated directly from the 384-well assay plate and delivered onto RF-MS microscale solid-phase C4 extraction cartridge (Type A). The undesired component such as salt, cofactor, detergent and large protein were washed out and the retained analytes (substrate, product and IS) were coeluted directly onto the AB Siex Qtrap 4000 system.

JAK2-JH1JH2 = JAK2-JH1JH2 (Homo sapiens (Human), UniProt O60674); assay: Enzymatic inhibition assay (HTMS); assay type: biochemical; settings: 30 μM ATP; read-out: JAK2_I_JH1JH2 IC50
Description: as §1, §2, §3, §4

JAK3-JH1JH2 = JAK3-JH1JH2 (Homo sapiens (Human), UniProt P52333); assay: Enzymatic inhibition assay (HTMS); assay type: biochemical; settings: 150 μM ATP; read-out: JAK3_I_JH1JH2 IC50
Description: as §1, §2, §3, §4

Tyk2-JH1JH2 = Tyk2-JH1JH2 (Homo sapiens (Human), UniProt P29597, C1142A/C936A); assay: Enzymatic inhibition assay (HTMS); assay type: biochemical; settings: 50 μM ATP; read-out: Tyk2_I_JH1JH2 IC50
Description: as §1, §2, §3, §4

MDCK-MDR1 cell line = assay: MDCK-MDR1 permeability assay; assay type: in vitro ADME; settings: for MDCK-MDR1 Papp(A-B): without elacridar; for MDCK-MDR1 Papp(B-A): basolateral to apical; for Papp(B-A)/Papp(A-B) efflux ratio: MDCK-MDR1, @ 5 μM
Description: Permeability measurements were conducted according to the Cyprotex protocol using the MDCK-MDR1 cell line obtained from the NIH (Rockville, Md., USA). […] The cells in this assay form a cohesive sheet of a single cell layer filing the surface area of the culture dish, also known as a confluent monolayer, and on day four the test compound was added to the apical side of the membrane and the transport of the compound across the monolayer was monitored over a time period of 60 min.
Test compounds were dissolved in DMSO at a concentration of 10 mM. The dosing solutions were prepared by diluting test compound with assay buffer (Hanks Balanced Salt Solution), pH 7.4, at a final concentration of 5 μM. For assessment of apical to basolateral (“A-B”) permeability, buffer was removed from the apical compartment and replaced with test compound dosing solution with or without the permeability glycoprotein (“PgP”, “P-gP”, “Pgp” or “P-gp”) inhibitor elacridar (2 μM). For assessment of basolateral to apical (“B-A”) permeability, buffer was removed from the companion plate and replaced with test compound dosing solution. Incubations were carried out in duplicate at 37° C. in an atmosphere of 5% CO2 with a relative humidity of 95%. […] After incubation for 60 minutes, apical and basolateral samples were diluted and test compounds quantified by LC/MS/MS using an 8-point calibration in the range 0.0039 to 3 μM with appropriate dilution of the samples (receiver dilution factor=1; donor and C0 dilution factor=10). The permeability coefficient (Papp) for each compound was calculated from the following equation: Papp=(dQ/dt)/(C0×S), where dQ/dt is the rate of permeation of the drug across the cells, C0 is the donor compartment concentration at time zero, and S is the area of the cell monolayer.
The percent recovery was measured for all incubation conditions.
Papp(A-B) gives an indication of permeation extent across the cells in this assay, which is envisaged to model the transcellular transport across Pgp-expressing cells, such as Pgp-expressing gastrointestinal tract cells.
The integrity of each monolayer was monitored by examining the permeation of lucifer yellow by fluorimetric analysis.

physchem = settings: pH 6.5, fassif, thermodynamic from solid

Sequence of JAK3-JH1JH2 (P52333 512-1124): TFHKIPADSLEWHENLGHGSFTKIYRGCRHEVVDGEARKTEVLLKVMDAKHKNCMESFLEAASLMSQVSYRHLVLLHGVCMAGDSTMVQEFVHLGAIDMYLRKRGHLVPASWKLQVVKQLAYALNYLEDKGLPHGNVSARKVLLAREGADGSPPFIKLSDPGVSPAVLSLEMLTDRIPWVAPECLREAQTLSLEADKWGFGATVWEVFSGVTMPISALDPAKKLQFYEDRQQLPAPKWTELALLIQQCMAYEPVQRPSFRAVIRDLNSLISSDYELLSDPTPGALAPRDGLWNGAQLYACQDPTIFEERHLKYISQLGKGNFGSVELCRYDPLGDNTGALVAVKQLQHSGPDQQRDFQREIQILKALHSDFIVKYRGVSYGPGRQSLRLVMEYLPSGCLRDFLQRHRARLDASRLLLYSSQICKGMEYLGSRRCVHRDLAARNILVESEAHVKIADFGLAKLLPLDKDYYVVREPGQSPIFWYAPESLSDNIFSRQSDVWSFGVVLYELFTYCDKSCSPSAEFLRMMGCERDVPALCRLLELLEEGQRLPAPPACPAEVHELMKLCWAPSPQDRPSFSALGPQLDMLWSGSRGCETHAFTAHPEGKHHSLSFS
Sequence of Tyk2-JH1JH2 (P29597 580-1182 C936A/C1142A): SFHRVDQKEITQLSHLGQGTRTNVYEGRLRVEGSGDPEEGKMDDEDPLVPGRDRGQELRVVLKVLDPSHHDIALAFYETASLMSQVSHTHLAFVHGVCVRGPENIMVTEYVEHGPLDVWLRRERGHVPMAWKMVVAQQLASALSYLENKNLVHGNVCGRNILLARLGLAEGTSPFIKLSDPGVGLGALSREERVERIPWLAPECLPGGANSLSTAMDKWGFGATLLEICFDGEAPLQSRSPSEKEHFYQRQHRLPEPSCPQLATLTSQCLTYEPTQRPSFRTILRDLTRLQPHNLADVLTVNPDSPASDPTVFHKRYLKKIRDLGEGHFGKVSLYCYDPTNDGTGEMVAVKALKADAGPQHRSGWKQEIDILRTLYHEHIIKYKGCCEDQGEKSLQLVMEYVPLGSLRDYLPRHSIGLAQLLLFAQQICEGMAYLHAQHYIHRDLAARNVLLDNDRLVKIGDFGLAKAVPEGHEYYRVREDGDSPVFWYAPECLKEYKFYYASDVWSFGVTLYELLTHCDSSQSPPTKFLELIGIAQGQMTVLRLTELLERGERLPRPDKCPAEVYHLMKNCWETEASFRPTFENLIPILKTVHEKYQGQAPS
Sequence of JAK2-JH1JH2 (O60674 532-1132): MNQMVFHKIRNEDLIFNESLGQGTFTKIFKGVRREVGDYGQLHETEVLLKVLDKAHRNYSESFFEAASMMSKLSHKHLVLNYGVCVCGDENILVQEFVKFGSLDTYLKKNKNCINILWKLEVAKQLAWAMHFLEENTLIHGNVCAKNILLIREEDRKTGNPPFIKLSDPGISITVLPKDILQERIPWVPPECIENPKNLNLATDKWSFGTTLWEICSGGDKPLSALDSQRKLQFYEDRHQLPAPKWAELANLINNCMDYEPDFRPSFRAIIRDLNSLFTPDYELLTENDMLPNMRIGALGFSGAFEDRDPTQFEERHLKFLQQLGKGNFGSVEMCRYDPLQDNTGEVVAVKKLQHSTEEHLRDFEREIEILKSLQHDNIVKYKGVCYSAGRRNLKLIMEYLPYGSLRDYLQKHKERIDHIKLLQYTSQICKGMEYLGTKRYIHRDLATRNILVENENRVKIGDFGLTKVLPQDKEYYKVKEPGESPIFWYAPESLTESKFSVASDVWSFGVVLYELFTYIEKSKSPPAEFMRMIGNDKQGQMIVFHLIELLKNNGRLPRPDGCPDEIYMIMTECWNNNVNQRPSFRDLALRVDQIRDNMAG
Sequence of JAK1-JH1JH2 (P23458 574-1154): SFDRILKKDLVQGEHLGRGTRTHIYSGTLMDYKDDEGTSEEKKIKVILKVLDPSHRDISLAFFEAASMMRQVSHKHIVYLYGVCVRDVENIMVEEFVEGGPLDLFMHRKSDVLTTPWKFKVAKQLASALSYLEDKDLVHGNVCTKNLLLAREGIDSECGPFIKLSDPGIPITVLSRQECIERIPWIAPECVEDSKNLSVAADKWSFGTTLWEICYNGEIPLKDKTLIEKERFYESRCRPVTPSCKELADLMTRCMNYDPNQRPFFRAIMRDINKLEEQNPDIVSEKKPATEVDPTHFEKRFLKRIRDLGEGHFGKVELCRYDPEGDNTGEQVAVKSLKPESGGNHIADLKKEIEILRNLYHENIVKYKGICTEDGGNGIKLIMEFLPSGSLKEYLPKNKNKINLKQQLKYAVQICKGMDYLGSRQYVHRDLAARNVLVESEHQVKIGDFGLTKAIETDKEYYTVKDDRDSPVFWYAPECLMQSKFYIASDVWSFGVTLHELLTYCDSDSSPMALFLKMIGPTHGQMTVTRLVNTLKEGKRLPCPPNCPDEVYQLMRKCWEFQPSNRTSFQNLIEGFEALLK

SMILES: CC(C)(O)CNC(=O)Cc1nc2cnc3[nH]ccc3c2n1[C@H]1CC[C@H](CC#N)CC1 [Ex. 1, 2-(1-((1r,4r)-4-(Cyanomethyl)cyclohexyl)-1,6-dihydroimidazo[4,5-d]pyrrolo[2,3-b]pyridin-2-yl)-N-(2-hydroxy-2-methylpropyl)acetamide]
- Plasma Concentration After i.c. Dosing, Mean ([1]; Time = 2 h): ^
- Plasma Concentration After i.c. Dosing, Mean ([1]; Time = 4 h): ^
- systemic exposure after i.c. dosing [1]: low systemic exposures
- IC50 (JAK1-JH1JH2): 0.4 nM
- IC50 (JAK2-JH1JH2): 8.6 nM
- IC50 (JAK3-JH1JH2): 92.2 nM
- IC50 (Tyk2-JH1JH2): 7.4 nM
- MDCK-MDR1 Papp(A-B) (MDCK-MDR1 cell line; @ 5 μM, apical to basolateral): 0.4 10^−6 cm/sec
- MDCK-MDR1 Papp(B-A) (MDCK-MDR1 cell line; @ 5 μM): 1.1 10^−6 cm/sec
- Papp(B-A)/Papp(A-B) efflux ratio (MDCK-MDR1 cell line): 3.3
- solubility (physchem): 387 µM (≈ 158 µg/mL)

SMILES: N#CC[C@H]1CC[C@H](n2c(-c3c[nH]cn3)nc3cnc4[nH]ccc4c32)CC1 [Ex. 2, 2-((1r,4r)-4-(2-(1H-Imidazol-4-yl)imidazo[4,5-d]pyrrolo[2,3-b]pyridin-1(6H)-yl)cyclohexyl)acetonitrile]
- IC50 (Tyk2-JH1JH2): 1.5 nM

SMILES: N#CC[C@H]1CC[C@H](n2c(CC(=O)NCC3CC3)nc3cnc4[nH]ccc4c32)CC1 [Ex. 3, 2-(1-((1r,4r)-4-(Cyanomethyl)cyclohexyl)-1,6-dihydroimidazo[4,5-d]pyrrolo[2,3-b]pyridin-2-yl)-N-(cyclopropylmethyl)acetamide]
- Plasma Concentration After i.c. Dosing, Mean ([1]; Time = 2 h): ^
- Plasma Concentration After i.c. Dosing, Mean ([1]; Time = 4 h): ^
- systemic exposure after i.c. dosing [1]: low systemic exposures
- IC50 (JAK1-JH1JH2): 0.2 nM
- IC50 (JAK2-JH1JH2): 6.2 nM
- IC50 (JAK3-JH1JH2): 82.8 nM
- IC50 (Tyk2-JH1JH2): 11.6 nM
- MDCK-MDR1 Papp(A-B) (MDCK-MDR1 cell line; @ 5 μM, apical to basolateral): < 0.5 10^−6 cm/sec
- MDCK-MDR1 Papp(B-A) (MDCK-MDR1 cell line; @ 5 μM): 16 10^−6 cm/sec
- Papp(B-A)/Papp(A-B) efflux ratio (MDCK-MDR1 cell line): > 33

SMILES: N#CCCNC(=O)Cc1nc2cnc3[nH]ccc3c2n1[C@H]1CC[C@H](CC#N)CC1 [Ex. 4, N-(2-Cyanoethyl)-2-(1-((1r,4r)-4-(cyanomethyl)cyclohexyl)-1,6-dihydroimidazo[4,5-d]pyrrolo[2,3-b]pyridin-2-yl)acetamide]
- Plasma Concentration After i.c. Dosing, Mean ([1]; Time = 4 h): ^
- systemic exposure after i.c. dosing [1]: low systemic exposures
- IC50 (JAK1-JH1JH2): 0.1 nM
- IC50 (JAK2-JH1JH2): 6.6 nM
- IC50 (JAK3-JH1JH2): 96.2 nM
- IC50 (Tyk2-JH1JH2): 2.2 nM

SMILES: N#CC[C@H]1CC[C@H](n2c(CC(=O)NC3CCOCC3)nc3cnc4[nH]ccc4c32)CC1 [Ex. 5, 2-(1-((1r,4r)-4-(Cyanomethyl)cyclohexyl)-1,6-dihydroimidazo[4,5-d]pyrrolo[2,3-b]pyridin-2-yl)-N-(tetrahydro-2H-pyran-4-yl)acetamide]
- IC50 (JAK1-JH1JH2): 0.3 nM
- IC50 (JAK2-JH1JH2): 2.1 nM
- IC50 (JAK3-JH1JH2): 23.1 nM
- IC50 (Tyk2-JH1JH2): 4.1 nM
- MDCK-MDR1 P^eapp(A-B) (MDCK-MDR1 cell line; @ 5 μM, apical to basolateral, with P-gp inhibitor elacridar (2 μM)): 0.5 10^−6 cm/sec
- MDCK-MDR1 Papp(A-B) (MDCK-MDR1 cell line; @ 5 μM, apical to basolateral): < 0.5 10^−6 cm/sec
- MDCK-MDR1 Papp(B-A) (MDCK-MDR1 cell line; @ 5 μM): 2.1 10^−6 cm/sec
- Papp(B-A)/Papp(A-B) efflux ratio (MDCK-MDR1 cell line): > 4.5
- solubility (physchem): 198 µM (≈ 83.3 µg/mL)

SMILES: N#CC[C@H]1CC[C@H](n2c(CC(=O)NCC3CCOCC3)nc3cnc4[nH]ccc4c32)CC1 [Ex. 6, 2-(1-((1r,4r)-4-(Cyanomethyl)cyclohexyl)-1,6-dihydroimidazo[4,5-d]pyrrolo[2,3-b]pyridin-2-yl)-N-((tetrahydro-2H-pyran-4-yl)methyl)acetamide]
- IC50 (JAK1-JH1JH2): 0.1 nM
- IC50 (JAK2-JH1JH2): 1.4 nM
- IC50 (JAK3-JH1JH2): 28.2 nM
- IC50 (Tyk2-JH1JH2): 1.1 nM
- MDCK-MDR1 Papp(B-A) (MDCK-MDR1 cell line; @ 5 μM): 2.6 10^−6 cm/sec
- Papp(B-A)/Papp(A-B) efflux ratio (MDCK-MDR1 cell line): > 8.7

SMILES: CC(C)(C#N)CNC(=O)Cc1nc2cnc3[nH]ccc3c2n1[C@H]1CC[C@H](CC#N)CC1 [Ex. 7, N-(2-Cyano-2-methylpropyl)-2-(1-((1r,4r)-4-(cyanomethyl)cyclohexyl)-1,6-dihydroimidazo[4,5-d]pyrrolo[2,3-b]pyridin-2-yl)acetamide]
- IC50 (JAK1-JH1JH2): 0.2 nM
- IC50 (JAK2-JH1JH2): 5.6 nM
- IC50 (JAK3-JH1JH2): 98.4 nM
- IC50 (Tyk2-JH1JH2): 4.8 nM
- solubility (physchem): 81 µM (≈ 33.8 µg/mL)

SMILES: N#CC[C@H]1CC[C@H](n2c(CC(=O)NCC3(O)CCC3)nc3cnc4[nH]ccc4c32)CC1 [Ex. 8, 2-(1-((1r,4r)-4-(Cyanomethyl)cyclohexyl)-1,6-dihydroimidazo[4,5-d]pyrrolo[2,3-b]pyridin-2-yl)-N-((1-hydroxycyclobutyl)methyl)acetamide]
- IC50 (JAK1-JH1JH2): 0.4 nM
- IC50 (JAK2-JH1JH2): 7 nM
- IC50 (JAK3-JH1JH2): 75.6 nM
- IC50 (Tyk2-JH1JH2): 6.6 nM

SMILES: N#CCC12CCC(NC(=O)Cc3nc4cnc5[nH]ccc5c4n3[C@H]3CC[C@H](CC#N)CC3)(CC1)C2 [Ex. 10, N-(4-(Cyanomethyl)bicyclo[2.2.1]heptan-1-yl)-2-(1-((1r, 4r)-4-(cyanomethyl)cyclohexyl)-1,6-dihydroimidazo[4,5-d]pyrrolo[2,3-b]pyridin-2-yl)acetamide]
- IC50 (JAK1-JH1JH2): 1 nM
- IC50 (JAK2-JH1JH2): 6.5 nM
- IC50 (JAK3-JH1JH2): 87.5 nM
- IC50 (Tyk2-JH1JH2): 9 nM
- solubility (physchem): 359 µM (≈ 169 µg/mL)

SMILES: N#CC[C@H]1CC[C@H](n2c(CC(=O)NCC3(O)CC3)nc3cnc4[nH]ccc4c32)CC1 [Ex. 12, 2-(1-((1r,4r)-4-(Cyanomethyl)cyclohexyl)-1,6-dihydroimidazo[4,5-d]pyrrolo[2,3-b]pyridin-2-yl)-N-((1-hydroxycyclopropyl)methyl)acetamide]
- IC50 (JAK1-JH1JH2): 0.9 nM
- IC50 (JAK2-JH1JH2): 9.4 nM
- IC50 (JAK3-JH1JH2): 101 nM
- IC50 (Tyk2-JH1JH2): 8.7 nM
